# Results as given in PubChem BioAssay AID272 (DTP/NCI, 2004).
# Results filed as inconclusive are left out.
# Tested on: Lewis lung carcinoma i.m., BDF1 mice, T/C %
# Experiment: NCI In Vivo Anticancer Drug Screen. Data for tumor model Lewis Lung Carcinoma (intramuscular) in B6D2F1 (BDF1) mice
# How it was run: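 Transplantable tumour model; readout survival or tumour size; value = treated (T) / vehicle control (C).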
# [1] = endpoint: mean tumor weight, dose: 10.0 mg/kg/injection, schedule: Q01DX011 (ip), vehicle: saline, higher = larger tumour
smiles,measurement,setting,value
O=C1C(=O)c2ccccc2C(O)=C1CC=C(Cl)Cl,T/C,"endpoint: mean tumor weight (est.), dose: 6.25 mg/kg/injection, schedule: Q01DX011 (ip), vehicle: saline with Tween-80, higher = larger tumour",93 % of control
same,T/C,"endpoint: mean tumor weight (est.), dose: 12.5 mg/kg/injection, schedule: Q01DX011 (ip), vehicle: saline with Tween-80, higher = larger tumour",86 % of control
same,T/C,"endpoint: mean tumor weight (est.), dose: 25.0 mg/kg/injection, schedule: Q01DX011 (ip), vehicle: saline with Tween-80, higher = larger tumour",61 % of control
same,T/C,"endpoint: mean tumor weight (est.), dose: 50.0 mg/kg/injection, schedule: Q01DX011 (ip), vehicle: saline with Tween-80, higher = larger tumour",79 % of control
same,T/C,"endpoint: mean tumor weight, dose: 3.75 mg/kg/injection, schedule: Q01DX011 (oral), vehicle: saline, higher = larger tumour",40 % of control
same,T/C,"endpoint: mean tumor weight, dose: 7.5 mg/kg/injection, schedule: Q01DX011 (ip), vehicle: saline, higher = larger tumour",54 % of control
same,T/C,"endpoint: mean tumor weight, dose: 7.5 mg/kg/injection, schedule: Q01DX011 (oral), vehicle: saline, higher = larger tumour",41 % of control
same,T/C,[1],102 % of control
same,T/C,"endpoint: mean tumor weight, dose: 12.5 mg/kg/injection, schedule: Q01DX011 (ip), vehicle: other, higher = larger tumour",71 % of control
same,T/C,"endpoint: mean tumor weight, dose: 15.0 mg/kg/injection, schedule: Q01DX011 (ip), vehicle: saline, higher = larger tumour",43 % of control
same,T/C,"endpoint: mean tumor weight, dose: 20.0 mg/kg/injection, schedule: Q01DX011 (ip), vehicle: saline, higher = larger tumour",91 % of control
same,T/C,"endpoint: mean tumor weight, dose: 25.0 mg/kg/injection, schedule: Q01DX011 (ip), vehicle: other, higher = larger tumour",88 % of control
same,T/C,"endpoint: mean tumor weight, dose: 30.0 mg/kg/injection, schedule: Q01DX011 (ip), vehicle: saline, higher = larger tumour",30 % of control
same,T/C,"endpoint: mean tumor weight, dose: 40.0 mg/kg/injection, schedule: Q01DX011 (ip), vehicle: saline, higher = larger tumour",82 % of control
same,T/C,"endpoint: mean tumor weight, dose: 50.0 mg/kg/injection, schedule: Q01DX011 (ip), vehicle: other, higher = larger tumour",55 % of control
same,T/C,"endpoint: median survival time, dose: 3.75 mg/kg/injection, schedule: Q01DX011 (oral), vehicle: saline, higher = longer survival",100 % of control
same,T/C,"endpoint: median survival time, dose: 6.25 mg/kg/injection, schedule: Q01DX011 (ip), vehicle: saline with Tween-80, higher = longer survival",89 % of control
same,T/C,"endpoint: median survival time, dose: 7.5 mg/kg/injection, schedule: Q01DX011 (ip), vehicle: saline, higher = longer survival",111 % of control
same,T/C,"endpoint: median survival time, dose: 7.5 mg/kg/injection, schedule: Q01DX011 (oral), vehicle: saline, higher = longer survival",101 % of control
same,T/C,"endpoint: median survival time, dose: 12.5 mg/kg/injection, schedule: Q01DX011 (ip), vehicle: saline with Tween-80, higher = longer survival",93 % of control
same,T/C,"endpoint: median survival time, dose: 15.0 mg/kg/injection, schedule: Q01DX011 (ip), vehicle: saline, higher = longer survival",113 % of control
same,T/C,"endpoint: median survival time, dose: 20.0 mg/kg/injection, schedule: Q01DX011 (ip), vehicle: saline, higher = longer survival",87 % of control
same,T/C,"endpoint: median survival time, dose: 25.0 mg/kg/injection, schedule: Q01DX011 (ip), vehicle: saline with Tween-80, higher = longer survival",89 % of control
same,T/C,"endpoint: median survival time, dose: 30.0 mg/kg/injection, schedule: Q01DX011 (ip), vehicle: saline, higher = longer survival",108 % of control
Cc1c[n+]2c3ccccc3c3ccccc3c2s1,T/C,[1],112 % of control
same,T/C,"endpoint: median survival time, dose: 10.0 mg/kg/injection, schedule: Q01DX011 (ip), vehicle: saline with Tween-80, higher = longer survival",89 % of control
Cc1cc2nc(CBr)c(CBr)nc2cc1C,T/C,"endpoint: mean tumor weight (est.), dose: 0.75 mg/kg/injection, schedule: Q01DX011 (ip), vehicle: saline with Tween-80, higher = larger tumour",87 % of control
same,T/C,"endpoint: mean tumor weight (est.), dose: 1.5 mg/kg/injection, schedule: Q01DX011 (ip), vehicle: saline with Tween-80, higher = larger tumour",76 % of control
same,T/C,"endpoint: mean tumor weight (est.), dose: 3.0 mg/kg/injection, schedule: Q01DX011 (ip), vehicle: saline with Tween-80, higher = larger tumour",67 % of control
same,T/C,"endpoint: mean tumor weight (est.), dose: 6.0 mg/kg/injection, schedule: Q01DX011 (ip), vehicle: saline with Tween-80, higher = larger tumour",48 % of control
same,T/C,"endpoint: median survival time, dose: 0.75 mg/kg/injection, schedule: Q01DX011 (ip), vehicle: saline with Tween-80, higher = longer survival",100 % of control
same,T/C,"endpoint: median survival time, dose: 1.5 mg/kg/injection, schedule: Q01DX011 (ip), vehicle: saline with Tween-80, higher = longer survival",101 % of control
same,T/C,"endpoint: median survival time, dose: 3.0 mg/kg/injection, schedule: Q01DX011 (ip), vehicle: saline with Tween-80, higher = longer survival",86 % of control
same,T/C,"endpoint: median survival time, dose: 6.0 mg/kg/injection, schedule: Q01DX011 (ip), vehicle: saline with Tween-80, higher = longer survival",107 % of control
Nc1nncs1,T/C,"endpoint: mean tumor weight, dose: 6.25 mg/kg/injection, schedule: Q01DX011 (ip), vehicle: water, higher = larger tumour",87 % of control
same,T/C,"endpoint: mean tumor weight, dose: 12.5 mg/kg/injection, schedule: Q01DX011 (ip), vehicle: water, higher = larger tumour",80 % of control
same,T/C,"endpoint: mean tumor weight, dose: 25.0 mg/kg/injection, schedule: Q01DX011 (ip), vehicle: water, higher = larger tumour",74 % of control
same,T/C,"endpoint: mean tumor weight, dose: 50.0 mg/kg/injection, schedule: Q01DX011 (ip), vehicle: water, higher = larger tumour",36 % of control
same,T/C,"endpoint: median survival time, dose: 6.25 mg/kg/injection, schedule: Q01DX011 (ip), vehicle: water, higher = longer survival",121 % of control
same,T/C,"endpoint: median survival time, dose: 25.0 mg/kg/injection, schedule: Q01DX011 (ip), vehicle: water, higher = longer survival",123 % of control
